Experiment [1] concerns the target T1, NanoLuc-ULK2 (NanoBRET) (Homo sapiens, UniProt Q8IYT8).
T1 sequence (Q8IYT8 1-1036): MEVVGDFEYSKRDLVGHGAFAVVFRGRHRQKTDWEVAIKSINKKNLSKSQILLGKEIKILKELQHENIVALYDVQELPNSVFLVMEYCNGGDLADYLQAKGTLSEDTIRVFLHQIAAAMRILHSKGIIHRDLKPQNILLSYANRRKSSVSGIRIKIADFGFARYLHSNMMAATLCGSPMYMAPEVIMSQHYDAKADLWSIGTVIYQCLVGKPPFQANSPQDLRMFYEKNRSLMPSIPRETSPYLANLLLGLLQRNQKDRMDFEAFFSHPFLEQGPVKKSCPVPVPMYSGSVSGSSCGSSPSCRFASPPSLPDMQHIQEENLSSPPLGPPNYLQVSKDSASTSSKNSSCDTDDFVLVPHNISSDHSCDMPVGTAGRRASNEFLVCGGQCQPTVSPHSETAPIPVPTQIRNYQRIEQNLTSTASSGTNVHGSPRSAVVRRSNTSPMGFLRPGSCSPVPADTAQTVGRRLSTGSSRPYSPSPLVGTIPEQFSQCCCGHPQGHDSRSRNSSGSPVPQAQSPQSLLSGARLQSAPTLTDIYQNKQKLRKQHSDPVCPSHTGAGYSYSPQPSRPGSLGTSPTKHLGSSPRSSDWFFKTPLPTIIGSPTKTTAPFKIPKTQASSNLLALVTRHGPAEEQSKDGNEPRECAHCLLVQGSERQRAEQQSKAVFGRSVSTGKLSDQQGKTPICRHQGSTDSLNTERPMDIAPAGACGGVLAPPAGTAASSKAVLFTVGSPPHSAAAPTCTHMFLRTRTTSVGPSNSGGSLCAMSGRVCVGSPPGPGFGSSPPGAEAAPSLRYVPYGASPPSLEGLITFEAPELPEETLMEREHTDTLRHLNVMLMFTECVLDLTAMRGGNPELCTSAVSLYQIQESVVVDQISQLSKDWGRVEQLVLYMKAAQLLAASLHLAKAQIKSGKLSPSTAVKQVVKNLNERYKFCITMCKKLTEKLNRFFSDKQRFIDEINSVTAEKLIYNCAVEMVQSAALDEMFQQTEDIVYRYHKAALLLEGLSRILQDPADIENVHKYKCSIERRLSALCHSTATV
Put plainly: NanoBRET tracer displacement in live HEK293T cells. It is filed as cell-based. (In general: Bioluminescence resonance energy transfer reports proximity on the nanometre scale.)

The target of experiment [2] is T2, ULK2 (recombinant human ULK2 protein 1-478, ADP-Glo) (Homo sapiens, UniProt Q8IYT8).
T2 sequence (Q8IYT8 1-478): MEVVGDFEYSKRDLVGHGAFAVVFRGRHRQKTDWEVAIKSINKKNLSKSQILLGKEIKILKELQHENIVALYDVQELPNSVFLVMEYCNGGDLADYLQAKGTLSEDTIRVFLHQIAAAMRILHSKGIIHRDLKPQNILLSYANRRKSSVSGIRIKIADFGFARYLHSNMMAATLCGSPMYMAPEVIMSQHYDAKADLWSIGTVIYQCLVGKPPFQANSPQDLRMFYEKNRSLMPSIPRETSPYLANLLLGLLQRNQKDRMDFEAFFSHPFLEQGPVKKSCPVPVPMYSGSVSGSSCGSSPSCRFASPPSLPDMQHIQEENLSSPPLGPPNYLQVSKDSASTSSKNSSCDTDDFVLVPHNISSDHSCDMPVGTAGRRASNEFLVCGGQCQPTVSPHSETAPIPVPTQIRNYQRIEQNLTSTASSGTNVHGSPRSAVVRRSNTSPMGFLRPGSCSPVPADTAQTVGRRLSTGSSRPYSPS
Put plainly: ADP-Glo kinase assay. The format is biochemical. For orientation: ADP-Glo first removes unused ATP, then detects ADP through luciferase.

Experiment [3] has as its target T2, ULK2 (recombinant human ULK2 protein 1-478, ADP-Glo). Kind of experiment: biochemical.
In experiment [4] the target is T3, ULK2 kinase domain (1-276) (Homo sapiens, UniProt Q8IYT8).
T3 sequence (Q8IYT8 1-276): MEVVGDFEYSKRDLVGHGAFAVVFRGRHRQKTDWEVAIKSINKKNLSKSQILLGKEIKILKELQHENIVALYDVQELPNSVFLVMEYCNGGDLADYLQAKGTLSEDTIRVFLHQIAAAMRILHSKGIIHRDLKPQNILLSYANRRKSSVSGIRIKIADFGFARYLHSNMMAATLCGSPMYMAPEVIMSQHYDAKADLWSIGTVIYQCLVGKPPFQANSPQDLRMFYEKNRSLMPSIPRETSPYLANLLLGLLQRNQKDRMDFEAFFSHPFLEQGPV
Put plainly: biochemical. The settings on record: read-out: ULK2 PTS (ºC).

Experiment [5] addresses T1, NanoLuc-ULK2 (NanoBRET). Kind of experiment: cell-based. The arrangement: species or system HEK293T.
Another experiment concerns the target T4, NanoLuc-ULK1 (NanoBRET) (Homo sapiens, UniProt O75385).
T4 sequence (O75385 1-1050): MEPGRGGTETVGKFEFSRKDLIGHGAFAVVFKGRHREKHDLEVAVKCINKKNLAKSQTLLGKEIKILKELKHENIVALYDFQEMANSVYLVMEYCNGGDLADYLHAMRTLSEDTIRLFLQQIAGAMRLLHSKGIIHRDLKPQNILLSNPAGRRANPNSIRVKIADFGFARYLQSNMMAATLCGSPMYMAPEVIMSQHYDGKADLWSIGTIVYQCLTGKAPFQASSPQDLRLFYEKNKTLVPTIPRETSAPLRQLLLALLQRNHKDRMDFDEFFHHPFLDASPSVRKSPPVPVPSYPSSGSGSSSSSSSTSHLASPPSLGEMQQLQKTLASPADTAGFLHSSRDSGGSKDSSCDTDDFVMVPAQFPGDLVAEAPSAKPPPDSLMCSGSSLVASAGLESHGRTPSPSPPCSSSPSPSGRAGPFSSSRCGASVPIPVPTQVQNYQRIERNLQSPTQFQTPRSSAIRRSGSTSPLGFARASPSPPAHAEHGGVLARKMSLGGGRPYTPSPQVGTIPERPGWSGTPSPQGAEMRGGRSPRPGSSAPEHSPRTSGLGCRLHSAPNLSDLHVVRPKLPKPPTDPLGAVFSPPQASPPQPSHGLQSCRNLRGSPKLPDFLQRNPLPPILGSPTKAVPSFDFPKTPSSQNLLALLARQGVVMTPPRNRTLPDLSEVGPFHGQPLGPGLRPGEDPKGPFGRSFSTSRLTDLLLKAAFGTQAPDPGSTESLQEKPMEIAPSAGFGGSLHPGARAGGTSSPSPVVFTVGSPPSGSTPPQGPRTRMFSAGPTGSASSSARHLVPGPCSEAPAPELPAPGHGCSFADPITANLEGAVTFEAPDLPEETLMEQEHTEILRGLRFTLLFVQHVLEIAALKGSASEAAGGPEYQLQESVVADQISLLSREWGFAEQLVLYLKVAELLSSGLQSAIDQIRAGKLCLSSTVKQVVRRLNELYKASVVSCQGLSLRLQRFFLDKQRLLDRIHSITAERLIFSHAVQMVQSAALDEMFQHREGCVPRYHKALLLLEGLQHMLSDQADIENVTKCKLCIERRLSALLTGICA
Kind of experiment: NanoBRET tracer displacement in live HEK293T cells. The format is cell-based.

For experiment [6], the target named is T5, ULK1 (recombinant human ULK1 protein 1-649, ADP-Glo) (Homo sapiens, UniProt O75385).
T5 sequence (O75385 1-649): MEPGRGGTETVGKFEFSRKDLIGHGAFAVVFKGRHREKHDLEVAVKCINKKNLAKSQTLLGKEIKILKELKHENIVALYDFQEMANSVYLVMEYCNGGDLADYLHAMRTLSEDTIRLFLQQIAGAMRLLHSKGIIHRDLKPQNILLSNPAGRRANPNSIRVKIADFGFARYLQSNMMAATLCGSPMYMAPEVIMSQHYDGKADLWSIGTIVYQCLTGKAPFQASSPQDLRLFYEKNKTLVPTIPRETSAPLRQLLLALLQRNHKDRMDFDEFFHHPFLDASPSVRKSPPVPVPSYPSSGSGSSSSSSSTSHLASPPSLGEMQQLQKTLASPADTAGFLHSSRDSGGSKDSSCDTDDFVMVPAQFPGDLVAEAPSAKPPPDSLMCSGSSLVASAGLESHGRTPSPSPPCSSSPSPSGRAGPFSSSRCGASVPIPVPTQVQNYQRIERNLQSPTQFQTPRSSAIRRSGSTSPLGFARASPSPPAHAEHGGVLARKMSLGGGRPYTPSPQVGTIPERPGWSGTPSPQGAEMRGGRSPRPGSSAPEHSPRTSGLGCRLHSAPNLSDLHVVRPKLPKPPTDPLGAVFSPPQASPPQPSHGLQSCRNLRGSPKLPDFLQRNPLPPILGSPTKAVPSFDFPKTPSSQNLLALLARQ
Kind of experiment: ADP-Glo kinase assay. It is filed as biochemical.

Experimental findings from doi:10.1101/2025.09.05.674519v1 (biorxiv, 2025) are described below.

Where a name gives a salt, the structure may show the parent alone.

As usually defined, the IC50 is the concentration at which inhibition is half-maximal.

For the compound `COc1cc(Nc2ncc(C(F)(F)F)c(NC3CC3)n2)cc(OC)c1OC` [compound 1], the results for the IC50 (on NanoLuc-ULK2 (NanoBRET) [1]; in experiment [2]) were 172 ± 33 nM and 64 ± 22 nM, respectively.
Turning to `O=C1CCc2cc(Nc3ncc(C(F)(F)F)c(NC4CC4)n3)ccc2N1` [compound 2, 6-((4-(Cyclopropylamine)-5-(trifluoromethyl)pyrimidine-2-yl)amino)-3,4-dihydroquinoline-2(1H)-one], the figures for the IC50 (at NanoLuc-ULK2 (NanoBRET) [1]; in experiment [2]) were 174 nM and 118 ± 34 nM, respectively.
For the compound `O=C1Cc2cc(Nc3ncc(C(F)(F)F)c(NC4CC4)n3)ccc2N1` [compound 3, 5-((4-(Cyclopropylamine)-5-(trifluoromethyl)pyrimidin-2-yl)amino)indolin-2-one], the IC50 in experiment [3] was determined as 704 ± 63 nM; against NanoLuc-ULK2 (NanoBRET) [5], 1100 ± 454 nM. Also, the ΔTm at 10 µM in experiment [4] stood at 3 ± 1.3 °C.
With `COc1cc(Nc2ncc(Br)c(NC3CC3)n2)cc(OC)c1OC` [compound 6, 5-Bromo-N4-cyclopropyl-N2-(3,4,5-trimethoxyphenyl)pyrimidine-2,4-diamine], the IC50 in experiment [3] was 217 ± 108 nM; against NanoLuc-ULK2 (NanoBRET) [5], 1470 ± 261 nM. The ΔTm at 10 µM in experiment [4] was found to be 7 ± 0.7 °C.
In the case of `O=C1CCc2cc(Nc3ncc(Br)c(NC4CC4)n3)ccc2N1` [compound 7, 6-((5-Bromo-4-(cyclopropylamine)pyrimidin-2-yl)amino)-3,4-dihydroquinolin-2(1H)-one], the concentration for half-maximal inhibition (IC50) is 896 ± 92 nM in experiment [3] and 1580 ± 325 nM against NanoLuc-ULK2 (NanoBRET) [5]. Also, the ΔTm at 10 µM in experiment [4] was found to be 2 ± 0.8 °C.
Turning to `O=C1CCc2cc(Nc3nccc(NC4CC4)n3)ccc2N1` [compound 8, 8], the IC50 on NanoLuc-ULK1 (NanoBRET) is over 10000 nM; in experiment [6], 2330 ± 667 nM.
With `O=C1CCc2cc(Nc3ncc(C(F)(F)F)c(NC4CCCC4)n3)ccc2N1` [compound 12, 6-((4-(Cyclopentylamine)-5-(trifluoromethyl)pyrimidin-2-yl)amino)-3,4-dihydroquinolin-2(1H)-one], the values for the IC50 (on NanoLuc-ULK1 (NanoBRET); in experiment [6]) were over 10000 nM and 25 ± 6 nM, respectively.
As for `O=C1CCc2cc(Nc3ncc(C(F)(F)F)c(NCC(F)(F)F)n3)ccc2N1` [compound 14, 6-((4-((2,2,2-Trifluoroethyl)amino)-5-(trifluoromethyl)pyrimidin-2-yl)amino)-3,4 dihydroquinolin-2(1H)-one], the half-inhibitory concentration (IC50) in experiment [3] was determined as 464 ± 90 nM; on NanoLuc-ULK2 (NanoBRET) [5] it was 1820 ± 599 nM. Further, the ΔTm at 10 µM in experiment [4] is 4 ± 0.1 °C.
Take `O=C1CCc2cc(Nc3ncc(C(F)(F)F)c(NCCO)n3)ccc2N1` [compound 15, 6-((4-((2-Hydroxyethyl)amino)-5-(trifluoromethyl)pyrimidin-2-yl)amino)-3,4-dihydroquinolin-2(1H)-one]: the IC50 was 980 ± 62 nM in experiment [3] and 875 ± 131 nM on NanoLuc-ULK2 (NanoBRET) [5]. Also, the ΔTm at 10 µM in experiment [4] came out at 8 ± 0.1 °C.
Consider `NCCCNc1nc(Nc2ccc3c(c2)CCC(=O)N3)ncc1C(F)(F)F` [compound 19, 6-((4-((3-Aminopropyl)amino)-5-(trifluoromethyl)pyrimidin-2-yl)amino)-3,4 dihydroquinolin-2(1H)-one·HCl], for which the IC50 turned out to be 480 ± 65 nM in experiment [3] and 77 ± 13 nM against NanoLuc-ULK2 (NanoBRET) [5]. Moreover, the ΔTm at 10 µM in experiment [4] was 7.5 °C.
Regarding `O=C1CCc2cc(Nc3ncc(C(F)(F)F)c(NCCCNC(=O)C4CC4)n3)ccc2N1` [compound 21, N-(3-((2-((2-Oxo-1,2,3,4-tetrahydroquinolin-6-yl)amino)-5-(trifluoromethyl)pyrimidin-4-yl)amino)propyl)cyclopropanecarboxamide], the IC50 amounted to 44 ± 10 nM on NanoLuc-ULK2 (NanoBRET) [1] and 50 ± 12 nM in experiment [2]. Moreover, the ΔTm at 10 µM in experiment [4] worked out at 8 ± 0.6 °C.
